Entries after “also recorded” stand apart in the source; their conditions may differ.
What was measured:
Type in all cases: cell-based
[1] = test system: "dummy" transfected control COS-7 cells; assay: Aequorin bioluminescence assay, "dummy" transfected control COS-7 cells (no leukotriene receptor); conditions: 200 nM agonist, COS-7 cells with "dummy" insert and aequorin
From the text: (§1) The photoprotein aequorin, originally isolated from luminescent jellyfish, has proven to be a highly sensitive and quantitative bioluminescence Ca^2+ indicator in cells.
(§2) The aequorin complex contains a 22,000 MW apoaequorin protein, oxygen and the luminophore, coelenterazine. When three Ca^2+ ions bind to this complex, coelenterazine is oxidized to coelenteramide, releasing carbon dioxide and light (emission maximum ˜466 nm). Aequorin has a broad detection range, allowing the measurement of Ca^2+ concentrations from ˜0.1 μM to >100 μM.
(§3) The HUMAN CysLT2 GPCR and apoaequorin cDNAs were transiently co-expressed in cells (the aequorin is targeted for expression in mitochondria). Once cells have been transfected with these expression vectors, they are incubated in a medium containing cell-permeant coelenterazine which reconstitutes the aequorin complex. After formation of the active aequorin complex, intracellular Ca^2+ release caused by activation of the HUMAN CysLT2 GPCR is measured by assaying cells for light production using a luminometer.
(§4) COS-7 cells were trypsinized and plated at 1.5×10^5 cells/well in 6 well tissue culture plates. The cells were grown overnight at 37° C. in DMEM supplemented with 10% FBS, 1% glutamine and 1% non essential amino acids. […]

HUMAN CysLT2 GPCR = target: T1, HUMAN CysLT2 GPCR (Homo sapiens, UniProt Q9NS75); assay: Aequorin bioluminescence assay of intracellular calcium release, COS-7 cells expressing HUMAN CysLT2 GPCR; conditions: 200 nM antagonist injected 10 seconds before 200 nM LTC4 or LTD4
T1 construct: expressed in transfected cells; host or cells: COS-7
T1 sequence (Q9NS75 1-346): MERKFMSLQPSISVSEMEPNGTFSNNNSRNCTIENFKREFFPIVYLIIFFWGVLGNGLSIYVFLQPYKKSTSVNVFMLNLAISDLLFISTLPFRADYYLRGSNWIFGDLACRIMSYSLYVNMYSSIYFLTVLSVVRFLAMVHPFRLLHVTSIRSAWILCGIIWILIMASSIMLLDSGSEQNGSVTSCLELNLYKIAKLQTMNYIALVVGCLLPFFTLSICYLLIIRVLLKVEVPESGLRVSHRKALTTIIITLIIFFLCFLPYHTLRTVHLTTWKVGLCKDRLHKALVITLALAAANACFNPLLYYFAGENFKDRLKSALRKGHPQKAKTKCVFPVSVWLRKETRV
From the text: as §1, §2, §3, §4

human CysLT1 receptor = target: T2, human CysLT1 receptor (Homo sapiens, UniProt Q9Y271); assay: Aequorin bioluminescence assay of intracellular calcium release, COS-7 cells expressing human CysLT1; conditions: 200 nM antagonist injected 10 seconds before 200 nM LTC4 or LTD4
T2 construct: expressed in transfected cells; host or cells: COS-7
T2 sequence (Q9Y271 1-337): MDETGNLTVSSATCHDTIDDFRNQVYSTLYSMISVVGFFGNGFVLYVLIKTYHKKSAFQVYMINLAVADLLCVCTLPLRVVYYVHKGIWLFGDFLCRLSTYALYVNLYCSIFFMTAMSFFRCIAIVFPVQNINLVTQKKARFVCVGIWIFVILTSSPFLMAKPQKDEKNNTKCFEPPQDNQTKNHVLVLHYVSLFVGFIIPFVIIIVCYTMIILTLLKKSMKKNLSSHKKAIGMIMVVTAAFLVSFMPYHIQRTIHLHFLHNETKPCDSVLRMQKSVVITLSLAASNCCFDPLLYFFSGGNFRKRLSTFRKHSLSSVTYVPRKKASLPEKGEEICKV

CCCCC/C=C\C\C=C/C=C/C=C/[C@@H](SC[C@H](NC(=O)CC[C@H](N)C(=O)O)C(=O)NCC(=O)O)[C@@H](O)CCCC(=O)O [LTC4]
aequorin activation by agonist [1]: not on the “dummy” transfected control cells

CCCCC/C=C\C\C=C/C=C/C=C/[C@@H](SC[C@H](N)C(=O)NCC(=O)O)[C@@H](O)CCCC(=O)O [LTD4]
aequorin activation by agonist [1]: not on the “dummy” transfected control cells

CN(C)C(=O)CCSC(SCCC(=O)O)c1cccc(/C=C/c2ccc3ccc(Cl)cc3n2)c1 (stereo not shown) [MK571]
block of LTC4 or LTD4 induced receptor activation by antagonist (HUMAN CysLT2 GPCR): neither antagonist significantly inhibited; also recorded: failed to block; also recorded: resistance to inhibition | block of LTC4 or LTD4 induced receptor activation by antagonist (human CysLT1 receptor): effectively blocked

— patent US20020150901A1, “Novel nucleic acids, polypeptides, methods of making, and uses thereof” (priority 2000, published 2002)
